Experimental data published in paper PMC9814781, “Structure-based design of a dual-warhead covalent inhibitor of FGFR4” (Communications Chemistry, 2022).

Key:
TRKA = TRKA (Homo sapiens, UniProt P04629); assay: Kinase selectivity profiling
p38δ = p38δ (Homo sapiens, UniProt O15264); assay: Kinase selectivity profiling
RSK3 = RSK3 (Homo sapiens, UniProt Q15349); assay: Kinase selectivity profiling
ITK = ITK (Homo sapiens, UniProt Q08881); assay: Kinase selectivity profiling
AKT2 = AKT2 (Homo sapiens, UniProt P31751); assay: Kinase selectivity profiling
HGK = HGK (Homo sapiens, UniProt O95819); assay: Kinase selectivity profiling
JAK3 = JAK3 (Homo sapiens, UniProt P52333); assay: Kinase selectivity profiling
NEK1 = NEK1 (Homo sapiens, UniProt Q96PY6); assay: Kinase selectivity profiling
CDK7/CycH/MAT1 = CDK7/CycH/MAT1 (Homo sapiens, UniProt P50613); assay: Kinase selectivity profiling
Erk2 = Erk2 (Homo sapiens, UniProt P28482); assay: Kinase selectivity profiling
DYRK1B = DYRK1B (Homo sapiens, UniProt Q9Y463); assay: Kinase selectivity profiling
PLK1 = PLK1 (Homo sapiens, UniProt P53350); assay: Kinase selectivity profiling
PLK1, sequence (P53350 whole entry): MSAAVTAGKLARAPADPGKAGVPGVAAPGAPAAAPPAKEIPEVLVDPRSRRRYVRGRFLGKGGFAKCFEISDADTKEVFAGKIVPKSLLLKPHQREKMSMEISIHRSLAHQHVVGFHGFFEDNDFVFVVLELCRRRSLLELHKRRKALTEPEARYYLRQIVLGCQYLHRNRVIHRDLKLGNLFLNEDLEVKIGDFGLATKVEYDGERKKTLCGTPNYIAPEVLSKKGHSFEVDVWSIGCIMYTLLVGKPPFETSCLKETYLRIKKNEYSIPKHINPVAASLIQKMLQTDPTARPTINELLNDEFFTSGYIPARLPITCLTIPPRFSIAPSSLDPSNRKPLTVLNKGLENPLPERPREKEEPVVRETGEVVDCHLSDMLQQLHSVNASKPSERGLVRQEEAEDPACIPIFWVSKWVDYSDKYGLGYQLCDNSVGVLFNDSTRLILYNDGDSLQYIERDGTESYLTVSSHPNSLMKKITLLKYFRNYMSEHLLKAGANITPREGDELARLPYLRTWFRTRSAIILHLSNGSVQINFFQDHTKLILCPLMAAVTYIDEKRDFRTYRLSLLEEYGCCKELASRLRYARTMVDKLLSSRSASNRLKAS

SGK2 = SGK2 (Homo sapiens, UniProt Q9HBY8); assay: Kinase selectivity profiling
SGK2, sequence (Q9HBY8 whole entry): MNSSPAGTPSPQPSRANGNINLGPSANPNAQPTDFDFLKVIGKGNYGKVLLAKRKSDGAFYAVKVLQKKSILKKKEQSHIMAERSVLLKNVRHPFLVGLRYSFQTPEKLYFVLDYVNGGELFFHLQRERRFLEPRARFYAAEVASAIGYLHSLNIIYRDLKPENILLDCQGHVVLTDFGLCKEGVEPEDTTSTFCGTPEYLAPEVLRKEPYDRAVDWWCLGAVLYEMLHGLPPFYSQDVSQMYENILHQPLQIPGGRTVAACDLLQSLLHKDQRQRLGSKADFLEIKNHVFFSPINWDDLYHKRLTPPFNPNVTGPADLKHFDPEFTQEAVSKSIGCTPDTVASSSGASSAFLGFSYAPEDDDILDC

CDK9/CycK = CDK9/CycK (Homo sapiens, UniProt P50750); assay: Kinase selectivity profiling
GSK3β = GSK3β (Homo sapiens, UniProt P49841); assay: Kinase selectivity profiling
GSK3β, sequence (P49841 whole entry): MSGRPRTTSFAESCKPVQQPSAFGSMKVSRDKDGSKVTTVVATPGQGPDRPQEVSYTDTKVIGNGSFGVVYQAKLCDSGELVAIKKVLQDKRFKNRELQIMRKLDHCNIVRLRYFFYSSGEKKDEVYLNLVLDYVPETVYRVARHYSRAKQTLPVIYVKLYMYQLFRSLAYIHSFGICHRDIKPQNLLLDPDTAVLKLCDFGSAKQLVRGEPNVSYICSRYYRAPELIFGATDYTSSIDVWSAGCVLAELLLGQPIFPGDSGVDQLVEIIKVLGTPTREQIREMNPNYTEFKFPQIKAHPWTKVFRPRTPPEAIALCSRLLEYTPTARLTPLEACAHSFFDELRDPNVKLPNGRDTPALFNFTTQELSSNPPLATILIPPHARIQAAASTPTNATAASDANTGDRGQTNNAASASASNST

ABL1 = ABL1 (Homo sapiens, UniProt P00519); assay: Kinase selectivity profiling
ABL1, sequence (P00519 whole entry): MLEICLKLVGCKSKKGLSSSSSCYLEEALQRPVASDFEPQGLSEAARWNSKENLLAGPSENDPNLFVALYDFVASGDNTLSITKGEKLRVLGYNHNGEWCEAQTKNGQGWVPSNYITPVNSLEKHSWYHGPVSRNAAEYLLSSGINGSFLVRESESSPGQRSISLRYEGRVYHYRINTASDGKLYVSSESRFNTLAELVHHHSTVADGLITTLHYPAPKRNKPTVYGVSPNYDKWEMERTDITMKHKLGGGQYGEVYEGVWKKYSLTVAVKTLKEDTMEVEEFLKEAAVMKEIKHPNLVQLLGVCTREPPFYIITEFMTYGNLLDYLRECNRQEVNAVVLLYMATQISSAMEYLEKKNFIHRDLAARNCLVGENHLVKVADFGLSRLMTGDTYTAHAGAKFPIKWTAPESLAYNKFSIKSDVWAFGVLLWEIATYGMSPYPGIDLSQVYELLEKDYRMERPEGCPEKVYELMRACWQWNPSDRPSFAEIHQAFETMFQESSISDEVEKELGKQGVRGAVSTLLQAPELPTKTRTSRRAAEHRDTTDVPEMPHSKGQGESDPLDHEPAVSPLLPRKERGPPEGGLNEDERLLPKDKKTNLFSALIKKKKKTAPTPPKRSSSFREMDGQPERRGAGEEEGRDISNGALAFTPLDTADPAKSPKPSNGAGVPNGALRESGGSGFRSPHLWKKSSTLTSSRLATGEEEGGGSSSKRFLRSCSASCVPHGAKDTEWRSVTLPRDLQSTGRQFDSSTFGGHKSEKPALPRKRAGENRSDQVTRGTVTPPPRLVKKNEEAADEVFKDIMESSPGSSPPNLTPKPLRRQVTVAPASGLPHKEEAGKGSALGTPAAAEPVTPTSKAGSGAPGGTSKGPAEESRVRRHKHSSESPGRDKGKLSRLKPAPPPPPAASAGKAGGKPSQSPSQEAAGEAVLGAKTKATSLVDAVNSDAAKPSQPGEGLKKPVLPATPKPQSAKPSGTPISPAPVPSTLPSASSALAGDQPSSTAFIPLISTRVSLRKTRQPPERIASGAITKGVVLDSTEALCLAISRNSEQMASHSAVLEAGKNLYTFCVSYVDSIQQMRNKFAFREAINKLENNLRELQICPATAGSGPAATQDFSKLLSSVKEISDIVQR

ROCK2 = ROCK2 (Homo sapiens, UniProt O75116); assay: Kinase selectivity profiling
MUSK = MUSK (Homo sapiens, UniProt O15146); assay: Kinase selectivity profiling
RON = RON (Homo sapiens, UniProt Q04912); assay: Kinase selectivity profiling
RON, sequence (Q04912 25-1400): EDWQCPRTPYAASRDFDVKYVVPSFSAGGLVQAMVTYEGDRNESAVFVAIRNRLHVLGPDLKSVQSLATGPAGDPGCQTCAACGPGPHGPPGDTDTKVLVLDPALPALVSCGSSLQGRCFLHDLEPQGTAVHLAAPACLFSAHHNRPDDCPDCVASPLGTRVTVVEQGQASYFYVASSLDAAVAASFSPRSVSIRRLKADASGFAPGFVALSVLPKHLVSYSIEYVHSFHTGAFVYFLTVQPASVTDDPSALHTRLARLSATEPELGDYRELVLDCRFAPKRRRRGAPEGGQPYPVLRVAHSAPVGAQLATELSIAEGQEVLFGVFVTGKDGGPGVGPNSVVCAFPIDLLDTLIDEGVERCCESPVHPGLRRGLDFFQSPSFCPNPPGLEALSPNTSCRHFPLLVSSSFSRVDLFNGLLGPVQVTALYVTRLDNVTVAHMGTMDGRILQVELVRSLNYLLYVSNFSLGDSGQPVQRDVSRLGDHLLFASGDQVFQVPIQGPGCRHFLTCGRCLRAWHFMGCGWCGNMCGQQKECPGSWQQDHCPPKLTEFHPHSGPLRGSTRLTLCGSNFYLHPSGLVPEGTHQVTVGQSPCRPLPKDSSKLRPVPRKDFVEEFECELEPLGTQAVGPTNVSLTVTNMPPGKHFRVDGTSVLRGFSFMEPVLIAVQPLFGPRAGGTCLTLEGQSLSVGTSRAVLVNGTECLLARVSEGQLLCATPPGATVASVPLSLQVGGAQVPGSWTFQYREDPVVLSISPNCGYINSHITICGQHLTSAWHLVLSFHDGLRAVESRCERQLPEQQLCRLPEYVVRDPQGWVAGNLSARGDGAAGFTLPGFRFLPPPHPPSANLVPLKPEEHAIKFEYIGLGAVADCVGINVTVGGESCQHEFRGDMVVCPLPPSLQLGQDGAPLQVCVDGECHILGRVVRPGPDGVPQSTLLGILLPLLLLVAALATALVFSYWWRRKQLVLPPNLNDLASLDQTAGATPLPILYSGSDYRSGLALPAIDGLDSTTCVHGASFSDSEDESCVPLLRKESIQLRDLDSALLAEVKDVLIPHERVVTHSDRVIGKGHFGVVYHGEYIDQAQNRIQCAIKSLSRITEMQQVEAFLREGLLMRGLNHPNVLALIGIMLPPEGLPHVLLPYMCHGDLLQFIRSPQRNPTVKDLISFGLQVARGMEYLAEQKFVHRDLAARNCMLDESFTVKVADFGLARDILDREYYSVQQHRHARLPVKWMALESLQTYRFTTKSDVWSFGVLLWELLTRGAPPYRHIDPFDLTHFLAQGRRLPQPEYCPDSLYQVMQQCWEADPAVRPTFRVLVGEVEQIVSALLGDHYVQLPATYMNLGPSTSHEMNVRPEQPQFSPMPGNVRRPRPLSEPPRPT

CK1ε = CK1ε (Homo sapiens, UniProt P49674); assay: Kinase selectivity profiling
CK1ε, sequence (P49674 whole entry): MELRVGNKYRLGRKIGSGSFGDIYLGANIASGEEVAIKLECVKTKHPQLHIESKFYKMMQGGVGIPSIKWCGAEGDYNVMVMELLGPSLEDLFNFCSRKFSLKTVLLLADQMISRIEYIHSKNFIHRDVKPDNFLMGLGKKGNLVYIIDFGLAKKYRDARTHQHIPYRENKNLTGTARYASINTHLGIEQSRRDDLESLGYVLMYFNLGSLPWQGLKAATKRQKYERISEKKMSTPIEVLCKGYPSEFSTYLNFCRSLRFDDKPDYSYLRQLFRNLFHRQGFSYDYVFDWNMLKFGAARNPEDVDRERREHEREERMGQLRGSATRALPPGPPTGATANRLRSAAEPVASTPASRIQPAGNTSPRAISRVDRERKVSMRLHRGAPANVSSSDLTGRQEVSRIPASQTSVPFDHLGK

BRSK2 = BRSK2 (Homo sapiens, UniProt Q8IWQ3); assay: Kinase selectivity profiling
HIPK2 = HIPK2 (Homo sapiens, UniProt Q9H2X6); assay: Kinase selectivity profiling
BTK = BTK (Homo sapiens, UniProt Q06187); assay: Kinase selectivity profiling
CDK1/CycE1 = CDK1/CycE1 (Homo sapiens, UniProt P06493); assay: Kinase selectivity profiling
CDK16/CycY = CDK16/CycY (Homo sapiens, UniProt Q00536); assay: Kinase selectivity profiling
HCK = HCK (Homo sapiens, UniProt P08631); assay: Kinase selectivity profiling
DYRK3 = DYRK3 (Homo sapiens, UniProt O43781); assay: Kinase selectivity profiling
DYRK3, sequence (O43781 whole entry, the tested form may be a part): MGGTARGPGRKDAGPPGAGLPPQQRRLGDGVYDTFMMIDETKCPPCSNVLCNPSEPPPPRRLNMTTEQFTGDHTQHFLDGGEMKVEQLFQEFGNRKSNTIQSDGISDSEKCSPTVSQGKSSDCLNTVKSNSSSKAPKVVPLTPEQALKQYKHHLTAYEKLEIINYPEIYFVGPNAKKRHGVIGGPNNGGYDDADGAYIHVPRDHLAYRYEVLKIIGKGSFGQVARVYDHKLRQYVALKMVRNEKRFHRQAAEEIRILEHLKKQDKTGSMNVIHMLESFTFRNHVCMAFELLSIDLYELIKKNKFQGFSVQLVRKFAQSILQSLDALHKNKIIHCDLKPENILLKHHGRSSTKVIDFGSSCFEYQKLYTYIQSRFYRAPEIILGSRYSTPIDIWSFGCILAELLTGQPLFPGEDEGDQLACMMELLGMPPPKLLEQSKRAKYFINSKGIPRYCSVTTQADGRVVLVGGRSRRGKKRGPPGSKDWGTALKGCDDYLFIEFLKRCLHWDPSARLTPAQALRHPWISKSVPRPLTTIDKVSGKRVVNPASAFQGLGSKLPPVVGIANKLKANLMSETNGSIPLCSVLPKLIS

FGFR2 = FGFR2 (Homo sapiens, UniProt P21802); assay: Kinase inhibition assay (ADP-Glo); type: biochemical; parameters: FGFR2 (residues 453–770); 6xHis + PreScission site (N, cleaved yes); made in house; host or cells: Escherichia coli Rosseta
Experimental: Wild-type FGFRs and mutant FGFRs were prepared as previously described[25]–[27]. In brief, the kinase domains of human FGFR1 (residues 456–765), FGFR2 (residues 453–770), FGFR3 (residues 450–758), and FGFR4 (residues 445–753) were cloned into a modified pET28a expression vector and then transfected into Escherichia coli Rosseta cells. The N-terminal of the recombinant proteins were contained a 6xHis tag followed by a PreScission cleavage site for FGFR1, FGFR2, FGFR3, and FGFR4. Site-directed mutagenesis of FGFR4 was generated according to the ClonExpress II One Step Cloning Kit (Vazyme) using the pET28a-FGFR4 plasmid as the template. These mutants were confirmed by DNA sequencing (Tsingke, Changsha, China). For crystallization experiments, the wild-type FGFR4 plasmid was co-expressed with untagged YOPH to obtain non-phosphorylated proteins. The proteins were first purified by Ni-NTA affinity chromatography. […]
All kinase inhibition assays were performed with optimized kinase assay buffer consisting of 40 mM Tris-HCl pH 7.5, 20 mM MgCl2, 20 mM NaCl, 0.1 mg/mL BSA, 1 mM TCEP, and 4% DMSO. […] Fluorescence was measured on a multimode plate reader (Perkin-Elmer) using a chemiluminescence program after the addition of the detection reagent. IC50 values were determined using a three-parameter log [Inhibitor] versus response model in GraphPad Prism software.

C=CC(=O)Nc1ccccc1Nc1ncc2c(n1)N(CCCN1CCN(C(=O)C=C)CC1)C(=O)N(c1cc(OC)cc(OC)c1)C2 [CXF-009]
inhibition at 1 µM (TRKA): 26.2% | inhibition at 1 µM (p38δ): 13.9% | inhibition at 1 µM (RSK3): 7.58% | inhibition at 1 µM (ITK): 4.35% | inhibition at 1 µM (AKT2): 3.35% | inhibition at 1 µM (HGK): 2.58% | inhibition at 1 µM (JAK3): 1.94% | inhibition at 1 µM (NEK1): 1.39% | inhibition at 1 µM (CDK7/CycH/MAT1): 1.27% | inhibition at 1 µM (Erk2): 0.94% | inhibition at 1 µM (DYRK1B): 0.62% | inhibition at 1 µM (PLK1): 0.59% | inhibition at 1 µM (SGK2): 0.51% | inhibition at 1 µM (CDK9/CycK): 0.11% | inhibition at 1 µM (GSK3β): -0.37% | inhibition at 1 µM (ABL1): -1.44% | inhibition at 1 µM (ROCK2): -2.53% | inhibition at 1 µM (MUSK): -3.46% | inhibition at 1 µM (RON): -4.53% | inhibition at 1 µM (CK1ε): -4.6% | inhibition at 1 µM (BRSK2): -5.03% | inhibition at 1 µM (HIPK2): -5.04% | inhibition at 1 µM (BTK): -5.76% | inhibition at 1 µM (CDK1/CycE1): -7.18% | inhibition at 1 µM (CDK16/CycY): -7.9% | inhibition at 1 µM (HCK): -11.6% | inhibition at 1 µM (DYRK3): -12% | IC50 (FGFR2): 2.41 µM
